Measured values: ChEMBL document CHEMBL1909046, “DrugMatrix in vitro pharmacology data”

How the values were obtained:
[1] = molecular target: T1, Androgen receptor (Rattus norvegicus, UniProt P15207); further: in other assays of this panel Not Active means under 50% inhibition at 10 µM
T1 sequence (P15207 whole entry): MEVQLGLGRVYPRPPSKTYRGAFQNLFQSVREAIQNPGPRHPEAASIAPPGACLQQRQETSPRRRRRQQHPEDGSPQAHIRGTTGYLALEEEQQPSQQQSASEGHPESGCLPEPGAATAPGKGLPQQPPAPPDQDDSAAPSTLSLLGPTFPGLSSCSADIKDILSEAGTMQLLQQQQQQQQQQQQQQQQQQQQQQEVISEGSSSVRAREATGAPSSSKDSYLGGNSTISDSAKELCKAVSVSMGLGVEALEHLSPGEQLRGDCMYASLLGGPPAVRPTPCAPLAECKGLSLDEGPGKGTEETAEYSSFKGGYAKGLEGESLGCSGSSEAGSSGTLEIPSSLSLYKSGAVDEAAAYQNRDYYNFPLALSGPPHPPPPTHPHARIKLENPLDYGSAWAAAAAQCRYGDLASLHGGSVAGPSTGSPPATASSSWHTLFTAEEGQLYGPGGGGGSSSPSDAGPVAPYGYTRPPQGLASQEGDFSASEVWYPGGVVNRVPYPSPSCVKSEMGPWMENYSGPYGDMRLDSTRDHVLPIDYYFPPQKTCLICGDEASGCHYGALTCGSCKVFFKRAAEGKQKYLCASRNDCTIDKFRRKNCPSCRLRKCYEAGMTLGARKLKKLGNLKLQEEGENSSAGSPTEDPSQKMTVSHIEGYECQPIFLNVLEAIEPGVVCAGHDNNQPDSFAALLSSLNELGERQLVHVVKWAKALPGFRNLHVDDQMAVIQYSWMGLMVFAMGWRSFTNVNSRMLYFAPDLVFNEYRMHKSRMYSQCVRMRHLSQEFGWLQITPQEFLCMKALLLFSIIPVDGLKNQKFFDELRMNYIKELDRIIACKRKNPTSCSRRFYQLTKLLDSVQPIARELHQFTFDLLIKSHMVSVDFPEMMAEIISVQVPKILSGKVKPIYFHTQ

[2] = DRUGMATRIX: Calcium Channel Type L, Phenylalkylamine radioligand binding (ligand: [3H] (-)-Desmethoxyverapamil (D-888)); assay type: cell membranes, Rattus norvegicus, Wistar, Brain, Membrane; conditions: Not Active = under 50% inhibition at 10 µM
[3] = molecular target: T2, Cytochrome P450 2A6 (Homo sapiens, UniProt P11509); conditions: bti-tn-5b1-4; further: in other assays of this panel Not Active means under 50% inhibition at 10 µM
T2 sequence (P11509 whole entry): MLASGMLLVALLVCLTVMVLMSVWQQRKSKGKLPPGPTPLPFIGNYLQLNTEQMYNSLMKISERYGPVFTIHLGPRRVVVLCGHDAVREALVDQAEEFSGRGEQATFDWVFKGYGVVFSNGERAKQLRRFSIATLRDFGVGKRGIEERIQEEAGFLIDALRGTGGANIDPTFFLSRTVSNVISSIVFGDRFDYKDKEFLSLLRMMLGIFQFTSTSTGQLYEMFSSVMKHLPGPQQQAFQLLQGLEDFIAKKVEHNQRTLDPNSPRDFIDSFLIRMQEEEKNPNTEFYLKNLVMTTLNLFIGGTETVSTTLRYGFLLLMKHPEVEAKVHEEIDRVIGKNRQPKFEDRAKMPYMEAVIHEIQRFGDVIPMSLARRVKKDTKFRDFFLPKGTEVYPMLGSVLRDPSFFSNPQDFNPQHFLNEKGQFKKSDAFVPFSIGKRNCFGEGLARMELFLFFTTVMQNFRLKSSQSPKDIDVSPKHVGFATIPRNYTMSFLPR

[4] = DRUGMATRIX: Nicotinic Acetylcholine radioligand binding (ligand: [125I] Epibatidine); assay type: cell membranes, Membrane; conditions: imr-32; Not Active = under 50% inhibition at 10 µM
[5] = molecular target: T3, Alpha-1B adrenergic receptor (Rattus norvegicus, UniProt P15823); assay: DRUGMATRIX: Alpha-1B adrenergic receptor radioligand binding (ligand: prazosin); assay type: cell membranes, Wistar, Liver, Membrane; conditions: Not Active = under 50% inhibition at 10 µM
T3 sequence (P15823 whole entry): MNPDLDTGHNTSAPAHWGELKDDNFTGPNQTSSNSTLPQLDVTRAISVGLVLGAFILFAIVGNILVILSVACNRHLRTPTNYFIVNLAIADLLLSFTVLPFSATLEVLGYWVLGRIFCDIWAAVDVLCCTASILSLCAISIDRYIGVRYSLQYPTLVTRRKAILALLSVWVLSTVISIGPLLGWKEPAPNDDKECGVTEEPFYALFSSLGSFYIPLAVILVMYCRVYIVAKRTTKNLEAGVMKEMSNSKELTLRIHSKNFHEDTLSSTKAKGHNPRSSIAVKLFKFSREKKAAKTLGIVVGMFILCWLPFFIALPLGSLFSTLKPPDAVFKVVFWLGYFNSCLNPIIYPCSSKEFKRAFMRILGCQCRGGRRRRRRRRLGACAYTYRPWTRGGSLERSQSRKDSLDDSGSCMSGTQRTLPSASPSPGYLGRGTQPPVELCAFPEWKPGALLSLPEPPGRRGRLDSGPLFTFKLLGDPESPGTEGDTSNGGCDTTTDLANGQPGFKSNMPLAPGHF

[6] = DRUGMATRIX: Glutamate, AMPA radioligand binding (ligand: [3H] AMPA); assay type: cell membranes, Rattus norvegicus, Wistar, Cerebral cortex, Membrane; conditions: Not Active = under 50% inhibition at 10 µM
[7] = DRUGMATRIX: Sodium/nucleoside co-transporter radioligand binding (ligand: nitrobenzylthioinosine); assay type: cell membranes, Cavia porcellus, Dunkin-Hartley, Cerebral cortex, Membrane; conditions: Not Active = under 50% inhibition at 10 µM

| SMILES | IC50 [1] | IC50 [2] | Ki [2] | IC50 [3] | Ki [3] | IC50 [4] | Ki [4] | IC50 [5] | IC50 [6] | Ki [6] | IC50 [7] | Ki [7] | IC50 ([2]; read-out: IC50) [nM] | Ki ([2]; read-out: Ki) [nM] |
| --- | --- | --- | --- | --- | --- | --- | --- | --- | --- | --- | --- | --- | --- | --- |
| O=c1cc(-c2ccccc2)oc2c1ccc1ccccc12 [ALPHA-NAPHTHOFLAVONE] | Not Active | Not Active | Not Active | Not Active | Not Active | Not Active | Not Active | Not Active | Not Active | Not Active | Not Active | Not Active | – | – |
| NCC[C@H](O)C(=O)N[C@@H]1C[C@H](N)[C@@H](O[C@H]2O[C@H](CN)[C@@H](O)[C@H](O)[C@H]2O)[C@H](O)[C@H]1O[C@H]1O[C@H](CO)[C@@H](O)[C@H](N)[C@H]1O [AMIKACIN] | Not Active | Not Active | Not Active | Not Active | Not Active | Not Active | Not Active | Not Active | Not Active | Not Active | Not Active | Not Active | – | – |
| CC1(C)S[C@@H]2[C@H](NC(=O)[C@H](N)c3ccc(O)cc3)C(=O)N2[C@H]1C(=O)O [AMOXICILLIN] | Not Active | Not Active | Not Active | Not Active | Not Active | Not Active | Not Active | Not Active | Not Active | Not Active | Not Active | Not Active | – | – |
| N#C[C@H](O[C@@H]1O[C@H](CO[C@@H]2O[C@H](CO)[C@@H](O)[C@H](O)[C@H]2O)[C@@H](O)[C@H](O)[C@H]1O)c1ccccc1 [AMYGDALIN] | Not Active | Not Active | Not Active | Not Active | Not Active | Not Active | Not Active | Not Active | Not Active | Not Active | Not Active | Not Active | – | – |
| C=C1[C@@H]2CCC3[C@@](CC[C@@H]4[C@H](C(=O)O)C[C@@H](O[C@@H]5O[C@H](CO)[C@@H](OS(=O)(=O)[O-])[C@H](OS(=O)(=O)[O-])[C@H]5OC(=O)CC(C)C)C[C@@]34C)(C2)[C@@H]1O.[K+].[K+] (stereo partly specified) [ATRACTYLOSIDE] | Not Active | Not Active | Not Active | Not Active | Not Active | Not Active | Not Active | Not Active | Not Active | Not Active | Not Active | Not Active | – | – |
| OCc1ccccc1 [BENZYL ALCOHOL] | Not Active | Not Active | Not Active | Not Active | Not Active | Not Active | Not Active | Not Active | Not Active | Not Active | Not Active | Not Active | – | – |
| Brc1ccccc1 [BROMOBENZENE] | Not Active | Not Active | Not Active | Not Active | Not Active | Not Active | Not Active | Not Active | Not Active | Not Active | Not Active | Not Active | – | – |
| CC[C@@]1(O)C(=O)OCc2c1cc1n(c2=O)Cc2cc3ccccc3nc2-1 [CAMPTOTHECIN] | Not Active | Not Active | Not Active | Not Active | Not Active | Not Active | Not Active | Not Active | Not Active | Not Active | Not Active | Not Active | – | – |
| COCc1c(C(C)C)nc(C(C)C)c(/C=C/[C@@H](O)C[C@@H](O)CC(=O)O)c1-c1ccc(F)cc1 [CERIVASTATIN] | Not Active | Not Active | Not Active | Not Active | Not Active | Not Active | Not Active | Not Active | Not Active | Not Active | Not Active | Not Active | – | – |
| CCc1cccc2c3c([nH]c12)C(CC)(CC(=O)O)OCC3 (stereo unspecified) [ETODOLAC] | Not Active | Not Active | Not Active | Not Active | Not Active | Not Active | Not Active | Not Active | Not Active | Not Active | Not Active | Not Active | – | – |
| CN(C)[C@@H]1C(O)=C(C(N)=O)C(=O)[C@@]2(O)C(O)=C3C(=O)c4c(O)cccc4[C@@](C)(O)[C@H]3[C@H](O)[C@@H]12 [OXYTETRACYCLINE] | Not Active | Not Active | Not Active | Not Active | Not Active | Not Active | Not Active | Not Active | Not Active | Not Active | Not Active | Not Active | – | – |
| Fc1ccc([C@@H]2CCNC[C@H]2COc2ccc3c(c2)OCO3)cc1 [PAROXETINE] | Not Active | – | – | Not Active | Not Active | Not Active | Not Active | Not Active | Not Active | Not Active | Not Active | Not Active | 747 | 726 |
| C=C(C)[C@@H]1[C@H]2OC(=O)[C@@H]1[C@]1(O)C[C@H]3O[C@]34C(=O)O[C@H]2[C@]14C [PICROTOXININ] | Not Active | Not Active | Not Active | Not Active | Not Active | Not Active | Not Active | Not Active | Not Active | Not Active | Not Active | Not Active | – | – |
